Experimental data: patent US20210338679A1, “NOVEL USES” (INTRA-CELLULAR THERAPIES, INC., priority 2018, published 2021)

Tests used:
[1] = tested on: leukocytes, neutrophils, and macrophages (M1/M2 macrophages); test: Mouse zymosan pleurisy model, flow cytometry of infiltrating cells; type: in vivo, mice; conditions: for inflammatory resolution (shift from M1 to M2): zymosan sterile inflammation, FIGS. 1-9
Protocol: (§1) Zymosan is injected into the pleural cavities of mice in order to induce sterile inflammation. Infiltration of leukocytes, neutrophils, and macrophages are monitored at days 3 and 7 following injection. Detection of various cell types are identified according to the gating strategy outlined in Table 1 below.
In this model, injection of zymosan causes the recruitment of various waves of leukocytes, which are observed and recorded. Exudate volume increases to a maximum over a period of 24 hours, and neutrophils increase within 4 hours and reach a maximum by 48 hours. Lymphocytes of the adaptive immune system enter at a later stage, after three days, which is signaled by macrophages presenting antigens. A resolution phase is well documented in this model and is accompanied by decreased total macrophage number and transition into M2 phenotype.
In the studies, Compounds 1 and 2 were administered to the test subjects, and the effect the compounds had on infiltration of leukocytes, neutrophils, and macrophages was observed.
Similar tests were conducted with Compound 2, the results of which are illustrated in FIGS. 8 and 9. […] An additional test was carried out according to the same method. Mice were injected intraperitoneally with 1 mg Zymosan followed by 10 mg/kg Compound 1. Macrophage levels were recorded at injection, then at 4, 8, 16, 24, 48 and 72 hours post-injection.

[2] = tested on: cytokine markers (IFNγ, IL-1β, MCP1-β, TNF-α, IL10, MCP-1/CCL2); test: Inflammatory cytokine biomarkers in mouse zymosan pleurisy model; type: in vivo, mice
Protocol: as §1
(§2) Zymosan was injected into the pleural cavities of mice in order to induce sterile inflammation by the methods discussed in Example 1. Compound 1 was administered to test subjects to observe the effects on a variety of inflammatory biomarkers. […] IFNγ, IL-1β, MCP1-β and TNF-α decreased following administration of Compound 1 in all serum and plasma samples.

[3] = tested on: metabolites of AA and DHA; test: Detection of arachidonic acid and docosahexaenoic acid metabolites in mouse zymosan pleurisy model; type: in vivo, mice
Protocol: as §2, with “biomarkers. Results were recorded after 4 hours.” for “biomarkers.”
Lipids are known to be involved in regulation of a multitude of cellular responses including cell growth and death, and inflammation/infection, via receptor-mediated pathways. Various lipids are involved in both the initiation and resolution of inflammation. Pro-resolving lipid mediators are produced naturally in the body from unsaturated fatty acids, such as arachidonic acid (AA) and docosahexaenoic acid (DHA). Further studies were carried out to identify metabolites of AA and DHA, which are summarized below in Tables 2 and 3.

BV2 cells = test: Microglia chemotaxis assay; type: cell-based; conditions: 100 μM ADP, 4 hours; FIG. 10
Protocol: BV2 cells were added to upper chamber of a 5 μm pore Transwell 96-well plate over a reservoir containing 100 μM ADP and incubated at 37° C. with 5% CO2 for 4 hours. After the incubation cells were harvested with pre-warmed cell detachment solution for 30 minutes in the same incubation conditions. 75 μl of this cell detachment solution was combined with 75 μl of culture medium in a new 96 well plate compatible with a fluorescence reader. Cell number in bottom chamber was determined by adding CyQuant® GR dye and reading in the Envision fluorescence reader at 480 nm EX/520 nm EM.

[4] = tested on: leukocytes, neutrophils, and macrophages (M1/M2 macrophages); test: Mouse zymosan pleurisy model, flow cytometry of infiltrating cells; type: in vivo, mice; conditions: 1 mg Zymosan i.p. followed by 10 mg/kg; day 7; FIG. 11A
[5] = after 4 hours, serum and plasma samples
[6] = arachidonic acid metabolite, compared with controls
[7] = docosahexaenoic acid metabolite

## C[C@@H]1C[C@H]2[C@@H]3CCC4=CC(=O)C=C[C@]4(C)[C@@]3(F)[C@@H](O)C[C@]2(C)[C@@]1(O)C(=O)CO [Dexamethasone, reference compound]
[1]; 2 mg/kg, day 3 or 7, FIG. 8
  number of CD38+ macrophage populations: no significant effect
[1]; 2 mg/kg, day 3 or 7, FIG. 9
  number of Erg2+ macrophage populations: no significant effect

## CN1C(=O)c2c(nn(Cc3ccc(-c4ccccn4)cc3)c2Nc2ccccc2)N2C1=N[C@@H]1CCC[C@@H]12 [Compound 2]
[1]; 3 mg/kg, day 7, FIG. 8
  CD38+ macrophages: significant drop
[1]; 3 mg/kg, day 7, FIG. 9
  Erg2+ macrophages: sharp and significant increase
[1]
  inflammatory resolution (shift from M1 to M2): enhanced inflammatory resolution

## CN1C(=O)c2c(nn(Cc3ccc(-c4cccc(F)n4)cc3)c2Nc2ccccc2)N2C1=N[C@@H]1CCC[C@@H]12 [Compound 1]
[1]; 1 mg Zymosan i.p. followed by 10 mg/kg, 4 hours, FIG. 12A
  Arg1+ M2 macrophages: increased
[1]; 1 mg Zymosan i.p. followed by 10 mg/kg, all observed times, FIGS. 11A, 11B
  M1 macrophage levels: lower M1 macrophage levels
[1]; 1 mg Zymosan i.p. followed by 10 mg/kg, relative to control at 2 and 3 days
  CD206+ M2 macrophages: significantly increased
[1]; day 3, among all animal groups, FIG. 6A
  MFI for CD38+ on macrophages: lowest value
[1]; day 3, FIG. 5A
  total numbers of CD38+ macrophages: decreased
[1]; day 7, compared with disease only and vehicle animals, FIG. 3A
  number of neutrophils: less dramatic decrease
[1]
  inflammatory resolution (shift from M1 to M2): enhanced inflammatory resolution
[2]; after 4 hours, serum
  IL10: decrease
[2]; [5]
  IFNγ: decreased
  IL-1β: decreased
  MCP1-β: decreased
  TNF-α: decreased
[2]; plasma, at 3 and 7 days, in comparison with control groups, FIG. 7
  inflammatory biomarkers (MCP-1/CCL2): less inflammatory biomarkers
[3]; [6]
  5-HETE (intermediate mediator linked to resolution): No change
  12-HETE (intermediate mediator linked to resolution): Increase
  15-HETE (intermediate mediator linked to resolution): Increase
  LTB4 (pro-inflammatory mediator): No change
  PGE2 (pro-inflammatory mediator): Decrease
  TXB2 (pro-inflammatory mediator): Decrease
[3]; [7]
  14-HDOHE (resolution mediator): Increase
  17-HDOHE (intermediate mediator linked to resolution): Increase
  RVD5 (intermediate mediator linked to resolution): Increase
BV2 cells
  motility of the BV2 cells across the membrane: marked dampening effect
[4]
  CD80+ macrophages (M1), difference to control: significant different
